One compound from PubChem BioAssay AID2376 (NMMLSC, 2010) can be followed below.

The assay concerns the target Cell division control protein 42 homolog (Homo sapiens) (UniProt P60953). The assay can be described thus: concentration effect on fluorescent GTP binding to Cdc42 – biochemical, nucleotide-depleted protein, Mg buffer, constant GTP, mechanism study for Ras-family GTPase inhibitor project, dose response (AID 2376). The settings on record: GST-Cdc42 beads, BODIPY-GTP binding, flow cytometry. (In general: In flow cytometry, cells or beads pass a laser one at a time.)

Cell division control protein 42 homolog (Homo sapiens), sequence (P60953 whole entry, looked up): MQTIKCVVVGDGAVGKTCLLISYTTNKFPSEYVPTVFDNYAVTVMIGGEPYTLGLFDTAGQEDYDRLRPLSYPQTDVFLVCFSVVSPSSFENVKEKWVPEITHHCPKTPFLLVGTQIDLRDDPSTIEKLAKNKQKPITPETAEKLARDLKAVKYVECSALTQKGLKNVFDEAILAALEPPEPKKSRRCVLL

As for `COc1ccc(C2CC(c3ccccc3)=NN2c2ccc(S(N)(=O)=O)cc2)cc1` (stereo unspecified), the EC50 is 263 nM.

As a reminder, the EC50 is the concentration at which the effect is half-maximal.
